According to PubChem BioAssay (NCI):
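These data come from cells grown in 96-well plates and exposed to compound for 48 hours at five concentrations. TGI marks complete inhibition of growth.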

What was measured:
Assay in all cases: NCI tumour cell line growth inhibition, 48 h
[1] = tested on: 786-0 renal
[2] = tested on: A498 renal
[3] = tested on: A549 NSCLC
[4] = tested on: ACHN renal
[5] = tested on: BT-549 breast
[6] = tested on: CAKI-1 renal
[7] = tested on: CCRF-CEM leukemia
[8] = tested on: COLO 205 colon
[9] = tested on: EKVX NSCLC
[10] = tested on: HCC-2998 colon
[11] = tested on: HCT-116 colon
[12] = tested on: HCT-15 colon
[13] = tested on: HL-60(TB) leukemia
[14] = tested on: HOP-62 NSCLC
[15] = tested on: HOP-92 NSCLC
[16] = tested on: HS 578T breast
[17] = tested on: HT29 colon
[18] = tested on: IGROV1 ovarian
[19] = tested on: K-562 leukemia
[20] = tested on: KM12 colon
[21] = tested on: LOX IMVI melanoma
[22] = tested on: M14 melanoma
[23] = tested on: MALME-3M melanoma
[24] = tested on: MCF7 breast
[25] = tested on: MDA-MB-231 breast
[26] = tested on: MDA-MB-435
[27] = tested on: MDA-N
[28] = tested on: MOLT-4 leukemia
[29] = tested on: NCI-H226 lung
[30] = tested on: NCI-H460 lung
[31] = tested on: NCI-H522 lung
[32] = tested on: NCI/ADR-RES ovarian
[33] = tested on: OVCAR-3 ovarian
[34] = tested on: OVCAR-4 ovarian
[35] = tested on: OVCAR-5 ovarian
[36] = tested on: OVCAR-8 ovarian
[37] = tested on: PC-3 prostate
[38] = tested on: RPMI-8226 leukemia
[39] = tested on: RXF 393 renal
[40] = tested on: SF-268 CNS
[41] = tested on: SF-295 CNS
[42] = tested on: SF-539 CNS
[43] = tested on: SK-MEL-2 melanoma
[44] = tested on: SK-MEL-28 melanoma
[45] = tested on: SK-MEL-5 melanoma
[46] = tested on: SK-OV-3 ovarian
[47] = tested on: SN12C renal
[48] = tested on: SNB-19 CNS
[49] = tested on: SNB-75 CNS
[50] = tested on: SW-620 colon
[51] = tested on: TK-10 renal
[52] = tested on: U251 CNS
[53] = tested on: UACC-257 melanoma
[54] = tested on: UACC-62 melanoma
[55] = tested on: DU-145 prostate
[56] = tested on: NCI-H23 lung
[57] = tested on: SR leukemia
[58] = tested on: T-47D breast
[59] = tested on: UO-31 renal

Measured: TGI

Cc1ccc(-c2c(C#N)c(-c3ccc([N+](=O)[O-])cc3)c(C#N)c(=O)n2NS(=O)(=O)c2ccc(C)cc2)cc1
95.8 µM: [16]
48.7 µM: [45]
73.2 µM: [7]
47 µM: [38]
84.3 µM: [13]
50.1 µM: [28]
> 100 µM: [1] | [2] | [3] | [4] | [5] | [6] | [8] | [9] | [10] | [11] | [12] | [14] | [15] | [17] | [18] | [19] | [20] | [21] | [22] | [23] | [24] | [25] | [26] | [27] | [29] | [30] | [31] | [32] | [33] | [34] | [35] | [36] | [37] | [39] | [40] | [41] | [42] | [43] | [44] | [46] | [47] | [48] | [49] | [50] | [51] | [52] | [53] | [54]

Cn1c(=O)oc2cc(C(=S)N3CCC(Cc4ccccc4)CC3)ccc21
> 100 µM: [1] | [2] | [4] | [5] | [6] | [7] | [8] | [55] | [9] | [11] | [12] | [13] | [14] | [16] | [17] | [18] | [19] | [20] | [21] | [22] | [23] | [24] | [25] | [26] | [27] | [28] | [29] | [56] | [30] | [32] | [33] | [35] | [36] | [37] | [38] | [39] | [40] | [41] | [42] | [43] | [44] | [45] | [46] | [47] | [48] | [49] | [57] | [50] | [51] | [52] | [53] | [54]

COc1c(C(=O)/C(=N/Nc2ccccc2)C(C)=O)c(O)c(OC)c2occc12
81.8 µM: [49]
> 100 µM: [1] | [3] | [4] | [6] | [7] | [8] | [55] | [9] | [10] | [11] | [12] | [13] | [14] | [16] | [17] | [18] | [19] | [20] | [21] | [22] | [24] | [25] | [26] | [27] | [28] | [29] | [56] | [30] | [31] | [32] | [33] | [34] | [35] | [36] | [37] | [38] | [39] | [40] | [41] | [42] | [43] | [44] | [46] | [47] | [48] | [57] | [50] | [58] | [51] | [52] | [53] | [54]
99.6 µM: [15]
92 µM: [23]
31.7 µM: [45]
86.3 µM: [59]

O=c1n(CCCN2CCN(c3cccc(Cl)c3)CC2)nc2n1-c1ccc3ccccc3c1SC2
> 100 µM: [1] | [2] | [3] | [5] | [6] | [7] | [8] | [55] | [9] | [11] | [12] | [13] | [14] | [15] | [16] | [17] | [18] | [19] | [20] | [21] | [24] | [26] | [27] | [28] | [29] | [30] | [31] | [32] | [33] | [34] | [35] | [36] | [37] | [38] | [39] | [41] | [42] | [43] | [44] | [45] | [46] | [47] | [48] | [49] | [57] | [50] | [51] | [52] | [53] | [54]

O=C1C=C(c2c(-c3ccccc3)[nH]c3ccccc23)C(=O)N1c1ccccc1
21.1 µM: [1]
35.3 µM: [30]
15.2 µM: [39]
30.3 µM: [51]
23.1 µM: [2]
24.1 µM: [5] | [13]
51.4 µM: [18]
1.06 µM: [14]
24 µM: [21]
52.8 µM: [16]
22.5 µM: [47]
29.7 µM: [17]
25.3 µM: [41]
26.8 µM: [52]
30.4 µM: [22]
27.9 µM: [54]
24.6 µM: [26]
49.4 µM: [7]
24.5 µM: [8]
25.7 µM: [6]
28.4 µM: [43]
21.8 µM: [37]
19.6 µM: [11]
66.2 µM: [32]
46.4 µM: [3]
15.7 µM: [55] | [27]
15.8 µM: [33]
33.3 µM: [35]
71.4 µM: [4]
23.8 µM: [12]
68.5 µM: [29]
39.2 µM: [42]
20.9 µM: [45]
68.7 µM: [44]
30.6 µM: [15] | [53]
21.5 µM: [40]
29.9 µM: [19]
38.6 µM: [56]
> 100 µM: [28] | [38] | [46]
28.9 µM: [59]
25.6 µM: [25]
38.5 µM: [9]
23.9 µM: [23]
66.1 µM: [48]
18.4 µM: [50]
20.8 µM: [10] | [36]

COc1ccc(N2C(=O)C3c4[nH]c5ccccc5c4C4CCCCCCCC4C3C2=O)cc1 (stereo not drawn)
8.35 µM: [7]
> 10 µM: [2] | [3] | [4] | [6] | [8] | [55] | [9] | [10] | [11] | [12] | [13] | [14] | [16] | [17] | [18] | [19] | [20] | [22] | [23] | [24] | [25] | [26] | [27] | [28] | [29] | [56] | [30] | [31] | [32] | [33] | [34] | [35] | [36] | [37] | [38] | [39] | [40] | [41] | [42] | [43] | [44] | [45] | [46] | [47] | [48] | [49] | [57] | [50] | [58] | [51] | [52] | [54] | [59]

O=c1c2c(sc3ccccc13)NCN(CCc1ccccc1)C2
80.2 µM: [28]
> 100 µM: [1] | [2] | [3] | [4] | [5] | [6] | [7] | [55] | [9] | [11] | [13] | [14] | [15] | [18] | [20] | [21] | [23] | [24] | [26] | [29] | [56] | [30] | [31] | [33] | [34] | [35] | [36] | [37] | [39] | [42] | [44] | [46] | [47] | [48] | [57] | [50] | [52] | [53] | [54] | [59]
59.7 µM: [27]
77.5 µM: [25]
29 µM: [45]
84.4 µM: [22]
75.4 µM: [43]
99 µM: [32]
37 µM: [8]
43.5 µM: [41]
78.2 µM: [49]
56.9 µM: [10]
40.8 µM: [19]
53.8 µM: [17]
43 µM: [38]

O=C(O)Cn1nnc2c(=O)[nH][nH]c(=O)c21
> 10 µM: [19] | [28] | [34]
> 100 µM: [1] | [3] | [4] | [5] | [6] | [7] | [8] | [55] | [9] | [10] | [11] | [12] | [13] | [14] | [15] | [17] | [20] | [21] | [22] | [23] | [24] | [25] | [26] | [27] | [56] | [30] | [32] | [33] | [35] | [36] | [38] | [41] | [43] | [44] | [45] | [47] | [48] | [57] | [51] | [52] | [53] | [59]
